We go through 15 compounds from patent US20220249447A1, “CF3-, OCF3-, SCF3-, and SF5-Containing Antibacterial Agents” (Purdue Research Foundation, priority 2019, published 2022).

In brackets after ≈: the same amount, converted by molar mass. Where only a bound is given, the exact number is not on record here.

The test system of assay [1] is S. aureus. The assay can be described thus: MIC, broth microdilution, S. aureus. The conditions noted are these: Staphylococcus aureus. It counts as cell-based. On the procedure:
(§1) Bacteria were cultured in cation-adjusted Mueller Hinton Broth (for strains in Tables 1-3) or Brain Heart Infusion broth (for Enterococcus faecium) or Tryptic Soy Broth (all other bacteria) in a 96-well plate at 37° C. for at least 20 hours. The MIC was classified as the lowest concentration where no visual growth of bacteria was observed. The minimum bactericidal concentration (MBC) was tested by spotting 4 μL from wells with no growth onto Tryptic Soy Agar (TSA) plates. Plates were incubated at 37° C. for at least 18 hours before recording the MBC.
(In general: Broth dilution looks for growth in wells or tubes with falling amounts of substance.)

The test system of assay [2] is MRSA ATCC 33592. Put plainly: MIC, broth microdilution, MRSA ATCC 33592. Format: cell-based, methicillin-resistant S. aureus. The conditions noted are these: Staphylococcus aureus. On the procedure:
All MRSA isolates were acquired from BEI Resources. The remaining bacteria were purchased from the American Type Culture Collection (ATCC).
as §1

Broadly, the MIC is the lowest concentration found to suppress growth. Higher therefore signals a need for much substance. Turning to `O=C(Nc1nnc(-c2ccccc2Cl)o1)c1ccc(SC(F)(F)F)cc1` [HSGN-2115, N-(5-(2-chlorophenyl)-1,3,4-oxadiazol-2-yl)-4-((trifluoromethyl)thio)benzamide], the MIC in assay [1] and in assay [2] was 0.5 µg/mL (≈ 1.25 µM) throughout.

With `O=C(Nc1nnc(-c2cccs2)o1)c1ccc(C(F)(F)F)nc1` [HSGN-171, N-(5-(thiophen-2-yl)-1,3,4-oxadiazol-2-yl)-6-(trifluoromethyl)nicotinamide], the MIC came out at 16 µg/mL (≈ 47 µM) in assay [1] and 8 µg/mL (≈ 23.5 µM) in assay [2].

For the compound `O=C(Nc1nnc(-c2ccc(F)cc2)o1)c1ccc(SC(F)(F)F)cc1` [HSGN-281, N-(5-(4-fluorophenyl)-1,3,4-oxadiazol-2-yl)-4-((trifluoromethyl)thio)benzamide], the MIC in assay [1] and in assay [2] was 0.0625 µg/mL (≈ 0.163 µM) each time.

As to `COc1ccc(Cl)cc1-c1nnc(NC(=O)c2ccc(SC(F)(F)F)cc2)o1` [HSGN-252, N-(5-(5-chloro-2-methoxyphenyl)-1,3,4-oxadiazol-2-yl)-4-((trifluoromethyl)thio)benzamide], the values for the MIC in assay [1] and in assay [2] were 2 µg/mL (≈ 4.65 µM) and 1 µg/mL (≈ 2.33 µM), respectively.

As for `Cc1ccc(-c2nnc(NC(=O)c3ccc(SC(F)(F)F)cc3)o2)s1` [HSGN-258, N-(5-(5-methylthiophen-2-yl)-1,3,4-oxadiazol-2-yl)-4-((trifluoromethyl)thio)benzamide], the MIC in assay [1] and in assay [2] was 2 µg/mL (≈ 5.19 µM) in each case.

As to `O=C(Nc1nnc(-c2ccc(C(F)(F)F)cc2)o1)c1ccc(OC(F)(F)F)cc1` [HSGN-220, 4-(trifluoromethoxy)-N-(5-(4-(trifluoromethyl)phenyl)-1,3,4-oxadiazol-2-yl)benzamide], the figures for the MIC in assay [1] and in assay [2] were 0.125 µg/mL (≈ 0.3 µM) and 0.25 µg/mL (≈ 0.599 µM), respectively.

For `O=C(Nc1nnc(C2CCCC2)o1)c1ccc(S(F)(F)(F)(F)F)cc1` [HSGN-2143, N-(5-cyclopentyl-1,3,4-oxadiazol-2-yl)-4-(pentafluoro-16-sulfaneyl)benzamide], the figures for the MIC in assay [1] and in assay [2] were 2 µg/mL (≈ 5.22 µM) and 1 µg/mL (≈ 2.61 µM), respectively.

Turning to `O=C(Nc1nnc(C(F)(F)F)o1)c1ccc(S(F)(F)(F)(F)F)cc1` [HSGN-2141, 4-(pentafluoro-λ^6-sulfaneyl)-N-(5-(trifluoromethyl)-1,3,4-oxadiazol-2-yl)benzamide], the MIC in assay [1] and in assay [2] was 32 µg/mL (≈ 83.5 µM) in each case.

In the case of `COc1ccc(-c2nnc(NC(=O)c3ccc(SC(F)(F)F)cc3)o2)cc1` [HSGN-207, N-(5-(4-methoxyphenyl)-1,3,4-oxadiazol-2-yl)-4-((trifluoromethyl)thio)benzamide], the MIC in assay [1] is 16 µg/mL (≈ 40.5 µM); in assay [2] it was 8 µg/mL (≈ 20.2 µM).

On to `O=C(Nc1nnc(-c2cccs2)o1)c1ccc(C(F)(F)F)o1` [HSGN-169, N-(5-(thiophen-2-yl)-1,3,4-oxadiazol-2-yl)-5-(trifluoromethyl)furan-2-carboxamide], for which the MIC in assay [1] and in assay [2] was more than 64 µg/mL each time.

Consider `O=C(Nc1nnc(-c2cccs2)o1)c1ccc(SC(F)F)cc1` [HSGN-250, 4-((difluoromethyl)thio)-N-(5-(thiophen-2-yl)-1,3,4-oxadiazol-2-yl)benzamide], for which the values for the MIC in assay [1] and in assay [2] were 4 µg/mL (≈ 11.3 µM) and 2 µg/mL (≈ 5.66 µM), respectively.

As to `O=C(Nc1cnn(-c2ccccc2)c1)c1ccc(S(F)(F)(F)(F)F)cc1` [HSGN-2135, 4-(pentafluoro-λ^6-sulfaneyl)-N-(1-phenyl-1H-pyrazol-4-yl)benzamide], the MIC in assay [1] and in assay [2] was more than 128 µg/mL throughout.

Take `FC(F)(F)Sc1ccc(-n2cc(-c3nnc(-c4cccc(Cl)c4)o3)nn2)cc1` [HSGN-260]: the minimal inhibitory concentration (MIC) in assay [1] (20 h) and in assay [2] (20 h) was more than 64 µg/mL each time.

On to `O=C(Nc1nnc(-c2cccc(Cl)c2)o1)c1cccc(SC(F)(F)F)c1` [HSGN-2111, N-(5-(3-chlorophenyl)-1,3,4-oxadiazol-2-yl)-3-((trifluoromethyl)thio)benzamide], for which the MIC in assay [1] and in assay [2] was 1 µg/mL (≈ 2.5 µM) in each case.

On to `O=C(Nc1nnc(-c2ccccc2F)o1)c1ccc(SC(F)(F)F)cc1` [HSGN-2114, N-(5-(2-fluorophenyl)-1,3,4-oxadiazol-2-yl)-4-((trifluoromethyl)thio)benzamide], for which the MIC in assay [1] and in assay [2] was 0.5 µg/mL (≈ 1.3 µM) each time.
